Results reported in ChEMBL document CHEMBL1201861, “Genomics of Drug Sensitity in Cancer screening data, Wellcome Trust Sanger Institute”.

Experiments:
Assay in all cases: cells
EW-11 = format: functional, cell-based, Homo sapiens; conditions: Homo sapiens, EW-11;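 note: growth inhibition of human EW-11 cells, measured with a cell viability assay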
Description: SANGER: Inhibition of human EW-11 cell growth in a cell viability assay.

KURAMOCHI = format: functional, cell-based; conditions: Homo sapiens;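 note: growth inhibition of KURAMOCHI cells, read out with a cell viability assay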
Description: SANGER: Inhibition of human KURAMOCHI cell growth in a cell viability assay.

KNS-42 = format: functional, cell-based, Homo sapiens; conditions: Homo sapiens, KNS-42;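 note: growth inhibition of KNS-42 cells, read out with a cell viability assay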
Description: SANGER: Inhibition of human KNS-42 cell growth in a cell viability assay.

HAL-01 = format: functional, cell-based; conditions: Homo sapiens;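 note: growth inhibition of human HAL-01 cells, read out with a cell viability assay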
Description: SANGER: Inhibition of human HAL-01 cell growth in a cell viability assay.

COLO-824 = format: functional, cell-based, Homo sapiens; conditions: Homo sapiens, COLO-824
Description: SANGER: Inhibition of human COLO-824 cell growth in a cell viability assay.

ES1 = format: functional, cell-based, Homo sapiens; conditions: Homo sapiens, ES1;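 note: growth inhibition of ES1 cells, read out with a cell viability assay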
Description: SANGER: Inhibition of human ES1 cell growth in a cell viability assay.

SNU1 = format: functional, cell-based; conditions: Homo sapiens;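 note: growth inhibition of human NCI-SNU-1 cells, measured with a cell viability assay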
Description: SANGER: Inhibition of human NCI-SNU-1 cell growth in a cell viability assay.

NCI-H209 = format: functional, cell-based; conditions: Homo sapiens;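 note: growth inhibition of human NCI-H209 cells, measured by a cell viability assay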
Description: SANGER: Inhibition of human NCI-H209 cell growth in a cell viability assay.

NCI-N87 = format: functional, cell-based, Homo sapiens; conditions: Homo sapiens, NCI-N87;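 note: growth inhibition of human NCI-N87 cells, read out with a cell viability assay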
Description: SANGER: Inhibition of human NCI-N87 cell growth in a cell viability assay.

LU-134-A = format: functional, cell-based; conditions: Homo sapiens
Description: SANGER: Inhibition of human LU-134-A cell growth in a cell viability assay.

GI-ME-N = format: functional, cell-based, Homo sapiens; conditions: Homo sapiens, GI-ME-N;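 note: growth inhibition of human GI-ME-N cells, read out with a cell viability assay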
Description: SANGER: Inhibition of human GI-ME-N cell growth in a cell viability assay.

NCI-H446 = format: functional, cell-based; conditions: Homo sapiens;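 note: growth inhibition of NCI-H446 cells determined by a cell viability assay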
Description: SANGER: Inhibition of human NCI-H446 cell growth in a cell viability assay.

OCUB-M = format: functional, cell-based, Homo sapiens; conditions: Homo sapiens, OCUB-M;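 note: growth inhibition of the cancer cell line, read out through a cell viability assay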
Description: SANGER: Inhibition of human OCUB-M cell growth in a cell viability assay.

A253 cell line = format: functional, cell-based, Homo sapiens; conditions: Homo sapiens, A253;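 note: growth inhibition of A253 cells, read out with a cell viability assay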
Description: SANGER: Inhibition of human A253 cell growth in a cell viability assay.

D-263MG = format: functional, cell-based, Homo sapiens; conditions: Homo sapiens, D-263MG
Description: SANGER: Inhibition of human D-263MG cell growth in a cell viability assay.

GI-1 = format: functional, cell-based, Homo sapiens; conditions: Homo sapiens, GI-1;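 note: growth inhibition of human GI-1 cells, measured with a cell viability readout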
Description: SANGER: Inhibition of human GI-1 cell growth in a cell viability assay.

KP-N-YS = format: functional, cell-based; conditions: Homo sapiens;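 note: cell viability assay measuring inhibition of cell line growth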
Description: SANGER: Inhibition of human KP-N-YS cell growth in a cell viability assay.

SK-N-FI = format: functional, cell-based, Homo sapiens; conditions: Homo sapiens, SK-N-FI;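 note: cell viability assay measuring growth inhibition of human SK-N-FI cells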
Description: SANGER: Inhibition of human SK-N-FI cell growth in a cell viability assay.

TE-10 = format: functional, cell-based, Homo sapiens; conditions: Homo sapiens, TE-10;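 note: growth inhibition of TE-10 cells, measured by a cell viability assay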
Description: SANGER: Inhibition of human TE-10 cell growth in a cell viability assay.

KARPAS-299 = format: functional, cell-based; conditions: Homo sapiens
Description: SANGER: Inhibition of human KARPAS-299 cell growth in a cell viability assay.

NCI-H1770 = format: functional, cell-based; conditions: Homo sapiens;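 note: growth inhibition of NCI-H1770 cells determined with a viability readout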
Description: SANGER: Inhibition of human NCI-H1770 cell growth in a cell viability assay.

ES5 = format: functional, cell-based, Homo sapiens; conditions: Homo sapiens, ES5;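 note: growth inhibition of human ES5 cells, read out by a cell viability assay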
Description: SANGER: Inhibition of human ES5 cell growth in a cell viability assay.

LU-139 = format: functional, cell-based; conditions: Homo sapiens
Description: SANGER: Inhibition of human LU-139 cell growth in a cell viability assay.

LB2518-MEL = format: functional, cell-based, Homo sapiens; conditions: Homo sapiens, LB2518-MEL;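 note: growth inhibition of human LB2518-MEL cells, measured with a cell viability assay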
Description: SANGER: Inhibition of human LB2518-MEL cell growth in a cell viability assay.

SK-NEP-1 = format: functional, cell-based; conditions: Homo sapiens;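 note: growth inhibition of human SK-NEP-1 cells, read out by a cell viability assay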
Description: SANGER: Inhibition of human SK-NEP-1 cell growth in a cell viability assay.

HuTu80 = format: functional, cell-based, Homo sapiens, HUTU-80; conditions: Homo sapiens, HuTu80;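 note: growth inhibition of HuTu80 human cells, determined with a cell viability readout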
Description: SANGER: Inhibition of human HUTU-80 cell growth in a cell viability assay.

HC-1 = format: functional, cell-based; conditions: Homo sapiens;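 note: growth inhibition of HC-1 cells measured by a cell viability assay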
Description: SANGER: Inhibition of human HC-1 cell growth in a cell viability assay.

EOL1 = format: functional, cell-based; conditions: Homo sapiens;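 note: growth inhibition of EoL-1 cells, read out by a cell viability assay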
Description: SANGER: Inhibition of human EoL-1-cell cell growth in a cell viability assay.

HT = format: functional, cell-based; conditions: Homo sapiens
Description: SANGER: Inhibition of human HT cell growth in a cell viability assay.

NCI-H2126 = format: functional, cell-based, Homo sapiens; conditions: Homo sapiens, NCI-H2126;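 note: growth inhibition of the cancer cell line, determined with a cell viability readout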
Description: SANGER: Inhibition of human NCI-H2126 cell growth in a cell viability assay.

MN-60 = format: functional, cell-based; conditions: Homo sapiens;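 note: growth inhibition of the MN-60 cell line, determined with a cell viability assay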
Description: SANGER: Inhibition of human MN-60 cell growth in a cell viability assay.

KINGS-1 = format: functional, cell-based, Homo sapiens; conditions: Homo sapiens, KINGS-1;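 note: cell viability assay measuring suppression of KINGS-1 cell growth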
Description: SANGER: Inhibition of human KINGS-1 cell growth in a cell viability assay.

SMILES	IC50 (EW-11) [µM]	IC50 (KURAMOCHI) [µM]	IC50 (KNS-42) [µM]	IC50 (HAL-01) [µM]	IC50 (COLO-824) [µM]	IC50 (ES1) [µM]	IC50 (SNU1) [µM]	IC50 (NCI-H209) [µM]	IC50 (LU-134-A) [µM]	IC50 (GI-ME-N) [µM]	IC50 (NCI-H446) [µM]	IC50 (OCUB-M) [µM]	IC50 (A253 cell line) [µM]	IC50 (D-263MG) [µM]	IC50 (GI-1) [µM]	IC50 (KP-N-YS) [µM]	IC50 (SK-N-FI) [µM]	IC50 (TE-10) [µM]	IC50 (KARPAS-299) [µM]	IC50 (NCI-H1770) [µM]	also measured
CO[C@H]1C[C@@H]2CC[C@@H](C)[C@@](O)(O2)C(=O)C(=O)N2CCCC[C@H]2C(=O)O[C@H]([C@H](C)C[C@@H]2CC[C@@H](O)[C@H](OC)C2)CC(=O)[C@H](C)/C=C(\C)[C@@H](O)[C@@H](OC)C(=O)[C@H](C)C[C@H](C)/C=C/C=C/C=C/1C [SIROLIMUS]	> 0.1	> 0.1	> 0.1	> 0.1	> 0.1	> 0.1	> 0.1	0.0874	> 0.1	> 0.1	> 0.1	< 0.000391	> 0.1	> 0.1	0.0704	> 0.1	> 0.1	0.0033	0.0618	> 0.1	IC50 (NCI-N87): > 0.1 µM; IC50 (ES5): > 0.1 µM; IC50 (LU-139): > 0.1 µM; IC50 (LB2518-MEL): > 0.1 µM; IC50 (SK-NEP-1): 0.00879 µM; IC50 (HuTu80): 0.00442 µM; IC50 (HC-1): > 0.1 µM; IC50 (EOL1): > 0.1 µM; IC50 (HT): 0.0176 µM; IC50 (NCI-H2126): > 0.1 µM; IC50 (MN-60): > 0.1 µM; IC50 (KINGS-1): 0.0515 µM
O=C(/C=C/c1ccccc1)NC(NC(=S)Nc1cccc2cccnc12)C(Cl)(Cl)Cl (configuration not stated) [SALUBRINAL]	> 16	> 16	> 16	9.32	> 16	> 16	> 16	> 16	> 16	> 16	> 16	> 16	> 16	> 16	> 16	> 16	> 16	> 16	> 16	> 16	IC50 (ES5): > 16 µM; IC50 (LU-139): 14 µM; IC50 (LB2518-MEL): 7.97 µM; IC50 (SK-NEP-1): > 16 µM; IC50 (HuTu80): 11.7 µM; IC50 (HC-1): 11.2 µM; IC50 (EOL1): > 16 µM; IC50 (HT): 8.94 µM; IC50 (NCI-H2126): > 16 µM; IC50 (MN-60): > 16 µM; IC50 (KINGS-1): > 16 µM
CS(=O)(=O)CCNCc1ccc(-c2ccc3ncnc(Nc4ccc(OCc5cccc(F)c5)c(Cl)c4)c3c2)o1 [LAPATINIB]	> 2	> 2	> 2	> 2	> 2	> 2	> 2	> 2	> 2	> 2	> 2	0.0574	1.97	> 2	> 2	> 2	> 2	> 2	> 2	> 2	IC50 (ES5): > 2 µM; IC50 (LU-139): > 2 µM; IC50 (LB2518-MEL): > 2 µM; IC50 (SK-NEP-1): > 2 µM; IC50 (HuTu80): > 2 µM; IC50 (HC-1): > 2 µM; IC50 (EOL1): > 2 µM; IC50 (HT): > 2 µM; IC50 (NCI-H2126): > 2 µM; IC50 (MN-60): > 2 µM; IC50 (KINGS-1): > 2 µM
CCC(=O)N1CCN(c2ccc(-n3c(=O)ccc4cnc5ccc(-c6cnc7ccccc7c6)cc5c43)cc2C(F)(F)F)CC1 [TORIN1]	> 1.2	0.0241	0.082	0.0766	0.878	0.031	> 1.2	0.23	0.553	0.18	0.169	0.00194	0.989	0.661	0.0247	> 1.2	> 1.2	0.0331	0.122	> 1.2	IC50 (ES5): > 1.2 µM; IC50 (LU-139): 0.13 µM; IC50 (LB2518-MEL): 0.087 µM; IC50 (SK-NEP-1): 0.161 µM; IC50 (HuTu80): 0.00929 µM; IC50 (HC-1): 0.0583 µM; IC50 (EOL1): 0.03 µM; IC50 (HT): 0.08 µM; IC50 (NCI-H2126): 0.114 µM; IC50 (MN-60): 0.299 µM; IC50 (KINGS-1): 0.058 µM
CCc1nc(N)nc(N)c1-c1ccc(Cl)cc1 [PYRIMETHAMINE]	> 20	> 20	> 20	4.74	> 20	0.123	14.7	6.06	> 20	1.4	> 20	> 20	> 20	> 20	> 20	> 20	> 20	> 20	> 20	> 20	IC50 (ES5): > 20 µM; IC50 (LU-139): 11.1 µM; IC50 (LB2518-MEL): > 20 µM; IC50 (SK-NEP-1): 1.24 µM; IC50 (HuTu80): 12.1 µM; IC50 (HC-1): 5.65 µM; IC50 (EOL1): > 20 µM; IC50 (HT): > 20 µM; IC50 (NCI-H2126): > 20 µM; IC50 (MN-60): > 20 µM; IC50 (KINGS-1): > 20 µM
CN1CCN(CCOc2cc(OC3CCOCC3)c3c(Nc4c(Cl)ccc5c4OCO5)ncnc3c2)CC1 [SARACATINIB]	> 2	> 2	> 2	> 2	> 2	> 2	> 2	> 2	> 2	> 2	> 2	> 2	> 2	> 2	> 2	> 2	> 2	1.66	> 2	> 2	IC50 (ES5): > 2 µM; IC50 (LU-139): > 2 µM; IC50 (LB2518-MEL): > 2 µM; IC50 (SK-NEP-1): > 2 µM; IC50 (HuTu80): > 2 µM; IC50 (HC-1): > 2 µM; IC50 (EOL1): > 2 µM; IC50 (HT): > 2 µM; IC50 (NCI-H2126): > 2 µM; IC50 (MN-60): > 2 µM; IC50 (KINGS-1): > 2 µM
